Reference: patent EP4029501A1, “COMBINATION OF POLYAROMATIC UREA DERIVATIVES AND GLUCOCORTICOID OR HDAC INHIBITOR FOR THE TREATMENT OF DISEASES OR CONDITIONS ASSOCIATED WITH MUSCLE CELLS AND/OR SATELLITE CELLS” (Anagenesis Biotechnologies, priority 2021, dated 2022)
Read-outs that look alike come from different tables or passages of the source. Blank lines part the entries; values can stand above or below the compound they belong to.

Legend:
Format in all cases: cell-based, human
Pax7-positive cells = assay: Myotube assay: Pax7-positive (satellite-like) cell quantification; design: key to Pax7: (-) : Depletes the pool of cells, while positively affects the myotubes; (+) : Maintains or increases the pool of cells, with at least 1 of the highest concentration known to be cytotoxic; (++) Maintains or increases the pool of cells, without any toxicity; settings: for Pax7: comparative compounds, effect on pool of Pax7-positive cells
Description: The efficacy of said compound for use in treating, ameliorating, delaying, curing and/or preventing a disease or condition associated with muscle cells and/or satellite cells is positively correlated with the generation of myotubes (i.e. the increase of the area occupied by myotubes on the assay) and/or satellite cells (i.e. the increase of the number of satellite cells) in the assay after adding said compound. The generation of myotubes by the addition of said compound is expressed as the EC50 value, the concentration of said compound that corresponds with the half-maximal generation of myotubes, and the MA (normalized myotube area) value, the normalized area occupied by generated myotubes on the assay. […] Since muscle cells are formed from myotubes during myogenesis, the generation of myotubes in the assay is a good indicator of the ability of said compound to induce the formation of functional muscle cells in vivo. The number of satellite cells is measured as the percentage of Pax7 positive cells, relative to the total number of cells in the assay, as shown in Figure 3. The percentage of Pax7 is a good indicator of the ability of said compound to induce the formation of satellite cells which are able to play a role in muscle repair and regeneration in vivo.
DMD human induced pluripotent stem cells (hereafter "DMD hiPSC"), generated from the NCRM-1 hiPSC WT cell line by gene editing, or WT human induced pluripotent stem cells (hereafter "WT hiPSC"), being NCRM-1 hiPSC wt cell line, have been differentiated according to Chal et al. 2015, 2016, to produce muscle progenitors (hereafter "hMP"). The hMP population contains satellite-like cells (i.e Pax7-positive cells) and satellite cells' progenies (i.e. Myogenin-positive cells).
(§1) Figure 1 provides an example of a Myotube assay workflow. At day 0, hMP are thawed and 3.1 million cells are plated into a T75-flask coated with hESC-qualified Matrigel™ (Corning) in SkGM proliferating medium (PromoCells), supplemented with 5 µM Y-27632 (Tocris Bioscience). On day 2, SkGM proliferating medium is refreshed. On day 4, hMP are harvested and transferred into a 384-well plate coated with collagen type I at a density of 3500 cells/well in a DMEM-based medium, containing 5% of knockout serum replacement (Gibco), 1% PenStrep (Gibco), 1% MEM NEAA (Gibco) and 0.1 mM 2-mercaptoethanol (Gibco) (hereafter "K5 medium") and 5 µM Y-27632. Compounds to be tested are then added in the medium and incubated for 3 days at 37°C. On day 7, cells are fixed and immunostained. For example, myotubes (alpha-actinin staining) and satellite-like (Pax7 staining) cells can be analyzed for total myotube area per well or Pax7-positive cell quantification.
DMD hMP were put in the Myotube assay according to the workflow described in Example 2.1. In particular, compound (i) was added at concentrations ranging from 1.5 nM to 30 µM, starting from day 4. hMP were cultivated for three more days in presence of compound (i), then fixed and analyzed for percentage of Pax7-positive cells and nuclei number. Duplicates of each condition were averaged.
(-) : Depletes the pool of cells, while positively affects the myotubes; (+) : Maintains or increases the pool of cells, with at least 1 of the highest concentration known to be cytotoxic; and (++) Maintains or increases the pool of cells, without any toxicity.

[1] = system: muscle progenitors derived from DMD hiPSC; assay: Myotube assay: total myotube area per well (alpha-actinin staining); settings: for EC50 / Emax: Homo sapiens, Myotube
How it was run: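 DMD hiPSC-derived muscle progenitors (NCRM-1 background) plated at 3500 cells/well in K5 medium with 5 µM Y-27632, then exposed to compound at 1.5 nM–30 µM for 3 days at 37°C. Cells fixed on day 7, alpha-actinin-immunostained and total myotube area per well quantified; duplicates averaged, EC50 and normalized myotube area derived.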

Pax7 positive cells = assay: Dose response assay of combination treatments with Givinostat or Prednisolone: percentage of Pax7-positive cells
Description: (§2) • Figure 1 - the workflow of the myotube assay, aiming at monitoring myogenic activity of compounds and effect on satellite-like cells. • Figure 2 - the myogenic activity of compound (i) in a dose-response assay, as shown by an increase of the total myotube surface/well upon increase of compound concentration. • Figure 3 - the positive effect on satellite-like cells of compound (i) in a dose-response assay, as shown by the increase of Pax7-positive cell percentage upon increase of compound concentration. • Figure 4 - representative images for the dose-response of the total myotube area readout for compound (i), corresponding to Figure 2. • Figure 5 - representative images for the dose-response of the percentage of Pax7-positive cell readout for compound (i), corresponding to Figure 3. • Figure 6 - Dose-response curve on muscle progenitors derived from DMD hiPSC. Treatment of muscle progenitors derived from DMD hiPSC with Prednisolone or Givinostat alone inducing a beneficial effect on α-actinin expression (representative of the myotube surface) and a loss of nearly 50 % of Pax7 positive cells (representative of the population of satellite cells) in a dose-dependent manner. The highest concentration represented is 10 µM. The arrows show the point a 0.3 µM. Efficacy values correspond to the highest score of normalized myotube surface (y-axis). Activity values correspond to the half maximal effective concentration (EC50; x-axis). The curve fits were calculated using a 4-parameter logistic regression model (Graphpad PRISM software). Error bars show standard deviation (SD). The picture on the right panel is representative of the highest myotube surface value of the dose-response curve. • Figures 7-9 - Dose-response curve on muscle progenitors derived from DMD hiPSC. Treatment in a dose-dependent manner of muscle progenitors derived from DMD hiPSC with indicated compound alone or with combination with Prednisolone or Givinostat at 0.3 µM. The combination induced an improvement of myogenic capabilities seen with α-actinin expression (representative of the myotube surface) and harbor no worsening of the Pax7 positive cells (representative of the population of satellite cells) compared to Prednisolone or Givinostat alone. The highest concentration of DRC is 10 µM.
as §1
DMD hMPs were put in the Myotube assay according to the workflow described in example 2.1. In particular, Prednisolone (Sigma) or Givinostat (Exclusive Chemistry) were added in all conditions at a fixed concentration equal to 0.3 µM in combination with compounds az or bw or q tested in DRC at 8 concentrations ranging from 4.5 nM to 10 µM, starting from day 4. Also, as control, DRCs with the same range of concentrations were done with Prednisolone alone, Givinostat (figure 6) alone or compounds az or bw or q alone (figures 7 to 9). […]

[2] = system: muscle progenitors derived from DMD hiPSC; assay: Dose response assay of combination treatments with Givinostat or Prednisolone: total myotube area; settings: for potency: change in words; for improvement of potency: versus alone
Description: as §2
Efficacy values correspond to the highest score of normalized myotube surface (y-axis). Activity values correspond to the half maximal effective concentration (EC50; x-axis). The curve fits were calculated using a 4-parameter logistic regression model (Graphpad PRISM software). Error bars show standard deviation (SD). The picture on the right panel is representative of the highest myotube surface value of the dose-response curve.
as §1
DMD hMPs were put in the Myotube assay according to the workflow described in example 2.1. […]

[3] = comparative compounds, same assay as Table 3, NA: non active
[4] = in combination with Givinostat at 0.3 µM
[5] = in combination with Prednisolone at 0.3 µM
[6] = 72 h, efficacy, MA = normalized Myotube Area, 3 days incubation, DMD or WT cell source not given
[7] = 72 h, myogenic activity, half-maximal generation of myotubes, 10 points dose-response 1.5 nM to 30 µM, 3 days, DMD or WT cell source not given
[8] = DRC 4.5 nM to 10 µM in combination with Givinostat at 0.3 µM
[9] = DRC 4.5 nM to 10 µM in combination with Prednisolone at 0.3 µM
[10] = 72 h, comparative compounds, same assay as Table 3, NA: non active, read-out: MA

SMILES: CSc1cc(Oc2ccnc3[nH]c(=O)cnc23)ccc1NC(=O)Nc1cc(C(C)(C)C)nn1-c1cccc(F)c1 [(bw), 1-(3-(tert-butyl)-1-(3-fluorophenyl)-1H-pyrazol-5-yl)-3-(2-(methylthio)-4-((3-oxo-3,4-dihydropyrido[2,3-b]pyrazin-8-yl)oxy)phenyl)urea]
- satellite cell pool (Pax7 positive cells; compound alone, DRC 4.5 nM to 10 µM): decrease of satellite cell pool which is only seen at high concentration
- satellite cell population (Pax7 positive cells; [4]): the decrease of satellite cell pool which is only seen at high concentration of treatment with compound bw alone is slightly diminished
- satellite cell population (Pax7 positive cells; [5]): the decrease of satellite cell pool which is only seen at high concentration of treatment with compound bw alone is slightly diminished
- Emax [1, 6]: ≥ 75%
- EC50 [1, 7]: < 500 nM
- total myotube surface [2, 8]: increased the total myotube surface
- total myotube surface [2, 9]: increased the total myotube surface
- potency [2, 4]: improved
- potency [2, 5]: slightly decreased

SMILES: CC(C)n1nc(C(C)(C)C)cc1NC(=O)Nc1ccc(Oc2ccnc3[nH]c(=O)cnc23)cc1F [(i), 1-(3-(tert-butyl)-1-isopropyl-1H-pyrazol-5-yl)-3-(2-fluoro-4-((3-oxo-3,4-dihydropyrido[2,3-b]pyrazin-8-yl)oxy)phenyl)urea]
- percentage of Pax7-positive cells (Pax7-positive cells; DMD hMP, 10 increasing concentrations 1.5 nM to 30 µM, 3 days (figure 3)): dose-dependent increase percentage of Pax7-positive cells
- myotube surface ([1]; DMD hMP, 10 increasing concentrations 1.5 nM to 30 µM, 3 days (figure 2)): dose-dependent increase of myotube surface
- Emax [1, 6]: 50 to 75%
- EC50 [1, 7]: 1000 to 5000 nM

SMILES: CC(C)(C)c1cc(NC(=O)Nc2ccc(Oc3ccnc4[nH]c(=O)cnc34)cc2F)sn1 [(q), 1-(3-(tert-butyl)isothiazol-5-yl)-3-(2-fluoro-4-((3-oxo-3,4-dihydropyrido[2,3-b]pyrazin-8-yl)oxy)phenyl)urea]
- satellite cell population (Pax7 positive cells; [4]): maintenance of the satellite cells in all conditions
- satellite cell population (Pax7 positive cells; [5]): maintenance of the satellite cells in all conditions
- Emax [1, 6]: 50 to 75%
- EC50 [1, 7]: 1000 to 5000 nM
- total myotube surface [2, 8]: strongly increased
- total myotube surface [2, 9]: strongly increased
- improvement of potency [2, 4]: 1.4 fold
- improvement of potency [2, 5]: 5 fold

SMILES: CNC(=O)c1cc(Oc2ccc(NC(=O)Nc3ccc(Cl)c(C(F)(F)F)c3)cc2)ccn1 [Sorafenib]
- Pax7 (Pax7-positive cells): ++
- Emax [1, 10]: 25 to 50%
- EC50 [1, 3]: ≥ 5000 nM

SMILES: CNC(=O)c1cc(Oc2ccc(NC(=O)Nc3cc(C(C)(C)C)nn3-c3ccc4ncccc4c3)c(F)c2)ccn1 [Rebastinib, reference compound]
- Pax7 (Pax7-positive cells): +
- EC50 [1, 3]: 1000 to 5000 nM

Further lines, with some results ahead:

- EC50 [1, 3]: 500 to 1000 nM
SMILES: CC(C)(C)c1cc(NC(=O)Nc2ccc(Oc3ccnc4[nH]c(=O)cnc34)cc2F)n(-c2ccccc2)n1 [CCT196969, reference compound]
- Pax7 (Pax7-positive cells): +
- MA [1, 3]: ++ (++: 50% ≤ MA <75%)

- EC50 [1, 3]: ≥ 5000 nM
SMILES: Cc1ccc(-n2nc(C(C)(C)C)cc2NC(=O)Nc2ccc(OCCN3CCOCC3)c3ccccc23)cc1 [BIRB-796]
- Pax7 (Pax7-positive cells): ++
- Emax [1, 10]: ≥ 75%
